Toxic doses and inconclusive results are not listed. Rule for the calls: active = survival T/C of 150% or more; inactive = T/C below 125% in these data.
System: CD2F1 mice, L1210 leukemia ip, survival T/C
Assay: NCI In Vivo Anticancer Drug Screen. Data for tumor model L1210 Leukemia (intraperitoneal) in CD2F1 (CDF1) mice
Settings: endpoint: mean survival time, higher = longer survival
In short: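 Each value reflects a quotient of treated over vehicle control outcomes in mice with a transplanted tumor.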

[1] = dose: 25.0 mg/kg/injection, schedule: Q01DX009 (ip), vehicle: saline with Tween-80
[2] = dose: 50.0 mg/kg/injection, schedule: Q01DX009 (ip), vehicle: saline with Tween-80
[3] = dose: 100.0 mg/kg/injection, schedule: Q01DX009 (ip), vehicle: Klucel (hydroxypropylcellulose) (HPC)
[4] = dose: 100.0 mg/kg/injection, schedule: Q01DX009 (ip), vehicle: saline with Tween-80
[5] = dose: 100.0 mg/kg/injection, schedule: Q04DX003 (ip), vehicle: saline with Tween-80
[6] = dose: 200.0 mg/kg/injection, schedule: Q01DX009 (ip), vehicle: saline with Tween-80
[7] = dose: 200.0 mg/kg/injection, schedule: Q04DX003 (ip), vehicle: saline with Tween-80
[8] = dose: 400.0 mg/kg/injection, schedule: Q01DX009 (ip), vehicle: saline with Tween-80
[9] = dose: 400.0 mg/kg/injection, schedule: Q04DX003 (ip), vehicle: saline with Tween-80
[10] = dose: 100.0 mg/kg/injection, schedule: Q01DX001 (ip), vehicle: saline with Tween-80
[11] = dose: 400.0 mg/kg/injection, schedule: Q01DX001 (ip), vehicle: saline with Tween-80

Measured: T/C

CC1(C)OC2C(/C=C\C(=O)c3ccccc3)OC(n3ccc(=O)[nH]c3=O)C2O1 (stereo not drawn)
inactive: dose: 12.5 mg/kg/injection, schedule: Q01DX005 (ip), vehicle: distilled water + Tween-80 102 % of control | dose: 25.0 mg/kg/injection, schedule: Q01DX005 (ip), vehicle: distilled water + Tween-80 100 % of control | dose: 50.0 mg/kg/injection, schedule: Q01DX005 (ip), vehicle: distilled water + Tween-80 96 % of control | dose: 100.0 mg/kg/injection, schedule: Q01DX005 (ip), vehicle: distilled water + Tween-80 103 % of control

c1ccc(C2CC([P+](c3ccccc3)(c3ccccc3)c3ccccc3)=NN2CC[P+](c2ccccc2)(c2ccccc2)c2ccccc2)cc1 (stereo not drawn)
inactive: dose: 1.56 mg/kg/injection, schedule: Q04DX003 (ip), vehicle: saline with Tween-80 101 % of control | dose: 3.13 mg/kg/injection, schedule: Q04DX003 (ip), vehicle: saline with Tween-80 96 % of control | dose: 6.25 mg/kg/injection, schedule: Q04DX003 (ip), vehicle: saline with Tween-80 93 % of control

CCC(=O)NC1=CC(=O)c2ccccc2C1=O
inactive: [1] 101 % of control | [2] 100 % of control

CCN(CC)CCCNC(C)=O
inactive: dose: 100.0 mg/kg/injection, schedule: Q04DX003 (ip), vehicle: saline 98 % of control | dose: 200.0 mg/kg/injection, schedule: Q04DX003 (ip), vehicle: saline 96 % of control | dose: 400.0 mg/kg/injection, schedule: Q04DX003 (ip), vehicle: saline 101 % of control

CC1(CC(C)(C)C2CCCCC2)OCCO1
inactive: dose: 25.0 mg/kg/injection, schedule: Q01DX009 (ip), vehicle: Klucel (hydroxypropylcellulose) (HPC) 93 % of control | dose: 50.0 mg/kg/injection, schedule: Q01DX009 (ip), vehicle: Klucel (hydroxypropylcellulose) (HPC) 95 % of control | [3] 91 % of control

OC(Cc1nc2ccccc2s1)(C(F)(F)F)C(F)(F)F
inactive: [4] 96 % of control | [5] 95 % of control | [6] 93 % of control | [7] 104 % of control | [8] 96 % of control | [9] 97 % of control

CC12OCCCC1C1CCCCC12 (stereo not drawn)
inactive: [5] 95 % of control | [7] 95 % of control | [9] 90 % of control

Cn1c(-c2ccccc2)cc(=O)cc1-c1ccccc1
inactive: [2] 96 % of control | [4] 93 % of control | [5] 91 % of control | [6] 94 % of control | [7] 97 % of control

CC(=O)Nc1ccc(S(=O)(=O)/N=S(\C)c2ccc(C)cc2)cc1 (stereo not drawn)
inactive: [3] 95 % of control | dose: 200.0 mg/kg/injection, schedule: Q01DX009 (ip), vehicle: Klucel (hydroxypropylcellulose) (HPC) 89 % of control | dose: 400.0 mg/kg/injection, schedule: Q01DX009 (ip), vehicle: Klucel (hydroxypropylcellulose) (HPC) 91 % of control | dose: 600.0 mg/kg/injection, schedule: Q01DX009 (ip), vehicle: Klucel (hydroxypropylcellulose) (HPC) 92 % of control

CN(C)CC(CN(C)C)C(=O)O
inactive: dose: 50.0 mg/kg/injection, schedule: Q01DX001 (ip), vehicle: saline 103 % of control | dose: 100.0 mg/kg/injection, schedule: Q01DX001 (ip), vehicle: saline 104 % of control | dose: 200.0 mg/kg/injection, schedule: Q01DX001 (ip), vehicle: saline 108 % of control

Nc1nnnn1-c1ccc(O)cc1
inactive: [5] 104 % of control | [7] 98 % of control | [9] 104 % of control

Nc1ccc2c(c1)-c1ccccc1C2O (stereo not drawn)
inactive: [5] 92 % of control | [7] 101 % of control | [9] 99 % of control

O=[N+]([O-])/C(=C/C=C/c1ccccc1)c1ccccc1
inactive: [10] 101 % of control | dose: 200.0 mg/kg/injection, schedule: Q01DX001 (ip), vehicle: saline with Tween-80 103 % of control | [11] 91 % of control

NNc1ccccc1-c1nc2ccccc2[nH]1
inactive: dose: 75.0 mg/kg/injection, schedule: Q01DX001 (ip), vehicle: saline 96 % of control | dose: 150.0 mg/kg/injection, schedule: Q01DX001 (ip), vehicle: saline 96 % of control | dose: 300.0 mg/kg/injection, schedule: Q01DX001 (ip), vehicle: saline 108 % of control

Cc1ccc(S(=O)(=O)c2ccc(F)cc2)cc1
inactive: [4] 100 % of control | [6] 102 % of control | [8] 96 % of control

CC1=CC(C)(N=[N+]=[N-])CC(C)(C)C1 (stereo not drawn)
inactive: dose: 37.5 mg/kg/injection, schedule: Q01DX009 (ip), vehicle: saline 97 % of control | dose: 75.0 mg/kg/injection, schedule: Q01DX009 (ip), vehicle: saline 97 % of control

CN1C(=O)NC(c2ccc(Cl)cc2)(c2ccc(Cl)cc2)C1=O
inactive: dose: 12.5 mg/kg/injection, schedule: Q01DX009 (ip), vehicle: distilled water + Tween-80 93 % of control | dose: 12.5 mg/kg/injection, schedule: Q01DX009 (ip), vehicle: saline with Tween-80 97 % of control | dose: 25.0 mg/kg/injection, schedule: Q01DX009 (ip), vehicle: distilled water + Tween-80 95 % of control | [1] 101 % of control | dose: 50.0 mg/kg/injection, schedule: Q01DX009 (ip), vehicle: distilled water + Tween-80 103 % of control | [2] 101 % of control | dose: 100.0 mg/kg/injection, schedule: Q01DX009 (ip), vehicle: distilled water + Tween-80 98 % of control | [4] 89 % of control | dose: 200.0 mg/kg/injection, schedule: Q01DX009 (ip), vehicle: distilled water + Tween-80 98 % of control | [6] 91 % of control

CC1CCCCN1 (stereo not drawn)
inactive: [10] 95 % of control | [11] 95 % of control

COc1ccc(Nc2ccc(C(=C3C=CC(=[N+](C)CCC#N)C=C3)c3ccc(N(C)CCC#N)cc3)cc2)cc1
inactive: dose: 100.0 mg/kg/injection, schedule: Q04DX002 (ip), vehicle: saline with Tween-80 90 % of control

CCCCc1nc2c(O)ccc(O)c2nc1C
inactive: dose: 18.75 mg/kg/injection, schedule: Q01DX009 (ip), vehicle: other 96 % of control | dose: 37.5 mg/kg/injection, schedule: Q01DX009 (ip), vehicle: other 94 % of control | dose: 75.0 mg/kg/injection, schedule: Q01DX009 (ip), vehicle: other 90 % of control

c1ccc(-c2nc(/N=N/c3nc(-c4ccccc4)c(-c4ccccc4)[nH]3)[nH]c2-c2ccccc2)cc1
inactive: dose: 100.0 mg/kg/injection, schedule: Q04DX002 (ip), vehicle: Klucel (hydroxypropylcellulose) (HPC) 96 % of control | dose: 200.0 mg/kg/injection, schedule: Q04DX002 (ip), vehicle: Klucel (hydroxypropylcellulose) (HPC) 96 % of control | dose: 400.0 mg/kg/injection, schedule: Q04DX002 (ip), vehicle: Klucel (hydroxypropylcellulose) (HPC) 100 % of control

CCOC(=O)c1cc2cc([N+](=O)[O-])ccc2[nH]1
inactive: [5] 92 % of control | [7] 87 % of control | [9] 91 % of control

COc1ccc(OCCC(=O)O)cc1
inactive: dose: 50.0 mg/kg/injection, schedule: Q01DX009 (ip), vehicle: saline 119 % of control | dose: 100.0 mg/kg/injection, schedule: Q01DX009 (ip), vehicle: saline 105 % of control | dose: 200.0 mg/kg/injection, schedule: Q01DX009 (ip), vehicle: saline 105 % of control

[CH3][Sn]([CH3])([Br])[CH2]CCCBr
inactive: dose: 0.39 mg/kg/injection, schedule: Q01DX009 (ip), vehicle: saline 90 % of control | dose: 0.78 mg/kg/injection, schedule: Q01DX009 (ip), vehicle: saline 94 % of control | dose: 1.56 mg/kg/injection, schedule: Q01DX009 (ip), vehicle: saline 92 % of control | dose: 6.25 mg/kg/injection, schedule: Q01DX009 (ip), vehicle: saline 98 % of control | dose: 12.5 mg/kg/injection, schedule: Q01DX009 (ip), vehicle: saline 91 % of control

O=C(O)c1ccccc1NCNc1ccccc1C(=O)O
inactive: [5] 100 % of control | [7] 93 % of control | [9] 110 % of control

Nc1nc(Br)c2ccccc2c1-c1ccc([N+](=O)[O-])cc1
inactive: dose: 50.0 mg/kg/injection, schedule: Q04DX003 (ip), vehicle: DMSO 98 % of control | dose: 100.0 mg/kg/injection, schedule: Q04DX003 (ip), vehicle: DMSO 96 % of control | dose: 200.0 mg/kg/injection, schedule: Q04DX003 (ip), vehicle: DMSO 95 % of control | dose: 400.0 mg/kg/injection, schedule: Q04DX003 (ip), vehicle: DMSO 95 % of control

OCC1(CO)CCCC(CO)(CO)C1O
inactive: dose: 100.0 mg/kg/injection, schedule: Q04DX002 (ip), vehicle: saline 94 % of control | dose: 200.0 mg/kg/injection, schedule: Q04DX002 (ip), vehicle: saline 94 % of control | dose: 400.0 mg/kg/injection, schedule: Q04DX002 (ip), vehicle: saline 94 % of control

— PubChem BioAssay AID256 (DTP/NCI, 2004)
